Assay results taken from patent US8158389B2, “Products and methods for in vivo secretion of monatin” (priority 2005, dated 2012).
Like-named read-outs stand apart in the source and are kept apart here. Marks after values point to notes of the source that are not given here.

Legend:
[1] = tested on: E. coli MG1655 ΔAcrAB 6-16::aspCproAproNde; assay: AcrAB k.o. validation: growth (OD 600 nm) with novobiocin / sodium decanoate, knockout strain; format: cell-based, Escherichia coli
Description: (§1) Single chloramphenicol-resistant colonies were purified by restreaking on appropriate selective media and single colonies were tested by PCR as previously described for the BW25113 knockout strains, to verify the presence of the emrB and acrAB knockouts. The effects of the emrB and acrAB knockouts on the EmrAB and AcrAB transporter systems respectively were determined by assessing the phenotype of the transport mutants using appropriate antibiotics and comparison to wild type control microorganisms as shown in Table 3.1 and Table 3.2 below.

[2] = tested on: E. coli MG1655::aspCproApProNde (control); assay: AcrAB k.o. validation: growth (OD 600 nm) with novobiocin / sodium decanoate, control strain; format: cell-based, Escherichia coli
Description: as §1

E. coli BL21DE3 AP pET32 = assay: Monatin excretion with Tween 20, E. coli BL21DE3 with or without Arabidopsis auxin transporter gene; format: cell-based, Escherichia coli; conditions: 0.2% Tween 20
Description: For inoculum preparation, the E. coli strains were grown overnight at 37° C. and 250 rpm in Luria-Bertani (“LB”) medium with 100 μg/mL ampicillin and 50 μg/mL kanamycin. For the experimental treatments, Trp-1+glucose medium, a minimal medium that has been used for increased production of tryptophan in E. coli cells (Zeman, et al. Folia Microbiol. 35:200-204, (1990)), was prepared as follows. To 800 mL nanopure water the following reagents were added: 2 g (NH4)2SO4 and 13.6 g KH2PO4. The pH was adjusted to 7.0, the volume was increased to 948 mL, and the medium was autoclaved. Following sterilization, 0.2 g MgSO4.7H2O, 0.01 g CaCl2.2H2O, and 0.5 mg FeSO4.7H2O were added to the medium in a 1.8 mL volume followed by addition of 0.2 mL of Neidhardt's micronutrient solution. Neidhardt F. C., et al., “Culture medium for Enterobacteria,” J. Bacteriol. 119:736-746, (1974). Neidhardt's medium includes (per liter): 0.18 g (NH4)6(MO7)24.4H2O, 1.24 g H3BO3, 0.36 g CoCl2.6H2O, 0.12 g CuSO4 (anhydrous), 0.8 g MnCl2.4H2O, and 0.14 g ZnSO4.7H2O. A 50% glucose solution was prepared separately and sterile-filtered. Forty mL of glucose solution and 10 mL of 1 M 3-Morpholinopropanesulfonic acid (“MOPS”) buffer were added to the base medium (950 mL) for a 1 L final volume.
Conditions for the treatments included 250 rpm agitation throughout and 37° C. up to induction, then, 30° C. following induction. At 0.54-0.62 OD600 nm, induction of the plasmid genes was initiated. At induction, 1.0 mM IPTG, 0.5% L-arabinose, 0.5 mM pyridoxine hydrochloride, and 0.2 mLs of Balch's vitamins were added. Additions of 10 g/L L-tryptophan, 10 g/L sodium pyruvate, 0.04 mM pyridoxal-5′-phosphate (“PLP”) and 0 or 0.2% Tween® 20 (polyoxyethylene 20-sorbitan monolaurate) were made 3 hours following induction.

[3] = tested on: C. glutamicum ATCC 13032 transformed with aspCProApEKEX-2
Description: C. glutamicum ATCC 13032 strains transformed with aspCProApEKEX-2 were grown overnight in LB medium supplemented with 25 μg/mL kanamycin incubated at 37° C. and shaking at 250 rpm. For the experimental treatment flasks, 100 mL of Krämer's A medium was used in each shake flask. Hoischen, C. and Krämer, R., “Evidence for an efflux carrier system involved in the secretion of glutamate by Corynebacterium glutamicum,” Arch. Microbiol 151:342-347, (1989). Krämer's A medium contained (per liter): 5 g (NH4)2SO4, 5 g urea, 2 g KH2PO4, 1.53 g K2HPO4, 0.249 g MgSO4.7H2O, 50 g glucose, 0.01 g FeSO4.7H2O, 0.01 g MnSO4.H2O, 0.01 g CaCl2.2H2O, 0.03 mg ZnSO4.7H2O, 0.1 mg H3BO3, 0.07 mg […], 0.01 mg NiCl2.2H2O, 0.03 mg CuCl2.2H2O, 0.1 mg as Mo^+6 from (NH4)6Mo7O24-4H2O and 1 μg biotin. The pH was adjusted to 7.0.
For treatments, 4.2 v/v % of inoculum was added to 100 mL medium volume in 500 mL baffled shake flasks. Conditions for the treatments included 37° C. throughout the experiment and 250 rpm agitation. Sodium salicylate (0, 1 mM or 2 mM) was added 1 hour following inoculation. At 0.45-0.6 OD600 nm induction of the monatin operon genes was initiated. IPTG at 0.5 mM was used for induction, and additions at the time of induction included 0.5 mM pyridoxine hydrochloride and 0.04 mM pyridoxal-5′-phosphate (“PLP”). Additions of 1 g L-tryptophan, 5 g/L sodium pyruvate and 10 μg/mL ampicillin were made 3 hours following induction. Samples for monatin and dry cell weight determination were taken at 23.5 and 48 hours.
Monatin analysis was conducted as described in Example 13.

[4] = tested on: C. glutamicum 13032 transformed with aspCProA pEKEX-2; assay: Monatin efflux with increased temperature and sodium pyruvate; format: cell-based, Corynebacterium glutamicum
Description: Microbiol 151:342-347, (1989). […] The pH was adjusted to 7.0.
Conditions for treatments included 30° or 35° C. throughout the experiment and 250 rpm agitation. At an OD600 nm, between 0.45-0.51, induction of the monatin operon genes was initiated. […] Additions of 1.0 g L-tryptophan, 10 or 15 g/L sodium pyruvate, 0.04 mM pyridoxal-5′-phosphate (“PLP”), were made 3 hours and also at 24 hours following induction. A total of 20 or 30 g/L sodium pyruvate was added to each flask by adding 10 or 15 g/l at each of the two feeding times.

[5] = 40 or 80 ppm novobiocin, no sodium decanoate
[6] = novobiocin 40 ppm, sodium decanoate 0 mM
[7] = novobiocin 40 ppm, sodium decanoate 2.5 mM
[8] = novobiocin 80 ppm, sodium decanoate 0 mM
[9] = novobiocin 80 ppm, sodium decanoate 2.5 mM
[10] = Arabidopsis auxin transporter gene on pProNde del, n = 3
[11] = no auxin transporter gene on pProNde del, n = 3

## CO[C@@H]1[C@@H](OC(N)=O)[C@@H](O)[C@H](Oc2ccc3c(O)c(NC(=O)c4ccc(O)c(CC=C(C)C)c4)c(=O)oc3c2C)OC1(C)C [novobiocin]
[1]; [5]
  growth: growth is completely inhibited
[1]; [6]
  OD 600 nm at 19 hours: 0.007
[1]; [7]
  OD 600 nm at 19 hours: 0.008
[1]; [8]
  OD 600 nm at 19 hours: 0.006
[1]; [9]
  OD 600 nm at 19 hours: 0.008
[2]; 0, 40 or 80 ppm novobiocin, in the presence of sodium decanoate
  growth: grew to similar optical densities
[2]; [5]
  growth: only slight inhibition of growth
[2]; [6]
  OD 600 nm at 19 hours: 1.407
[2]; [7]
  OD 600 nm at 19 hours: 1.395
[2]; [8]
  OD 600 nm at 19 hours: 0.793
[2]; [9]
  OD 600 nm at 19 hours: 1.374

## polyoxyethylene 20-sorbitan monolaurate [Tween ® 20]
E. coli BL21DE3 AP pET32; Arabidopsis auxin transporter gene on pProNde del, n = 2
  Monatin/dry cell wt., 30 hours: 26.7* mg/g
E. coli BL21DE3 AP pET32; [10]
  Monatin/dry cell wt., 24 hours: 29.4 mg/g
  Monatin/dry cell wt., 48 hours: 19.7 mg/g
E. coli BL21DE3 AP pET32; [11]
  Monatin/dry cell wt., 24 hours: 2.2 mg/g
  Monatin/dry cell wt., 30 hours: 2.5 mg/g
  Monatin/dry cell wt., 48 hours: 2.2 mg/g

## O=C([O-])c1ccccc1O.[Na+] [sodium salicylate, Sodium salicylate]
[3]; 1 mM or 2 mM sodium salicylate, 23.5 hours
  increase in monatin transported: seventy percent increase
[3]; 1 mM or 2 mM sodium salicylate, 48 hours
  increase in monatin efflux: seven percent increase
[3]; 1 mM sodium salicylate
  Monatin/dcw, 23.5 hours: 7.41 mg/g
  Monatin/dcw, 48 hours: 9.94 mg/g
[3]; 2 mM sodium salicylate
  Monatin/dcw, 23.5 hours: 7.54 mg/g
  Monatin/dcw, 48 hours: 9.82 mg/g

## CC(=O)C(=O)[O-].[Na+] [pyruvate, sodium pyruvate]
[4]; 30° C., 20 g/L pyruvate
  Monatin/dry cell weight, 24 hours: 0.2 mg/g
  Monatin/dry cell weight, 31 hours: 2.1 mg/g
  Monatin/dry cell weight, 48 hours: 2.7 mg/g
  Monatin/dry cell weight, 54 hours: 2.7 mg/g
[4]; 30° C., 30 g/L pyruvate
  Monatin/dry cell weight, 24 hours: 0.3 mg/g
  Monatin/dry cell weight, 31 hours: 1.8 mg/g
  Monatin/dry cell weight, 48 hours: 4.3 mg/g
  Monatin/dry cell weight, 54 hours: 4.7 mg/g
[4]; 35° C., 20 g/L pyruvate
  Monatin/dry cell weight, 24 hours: 5.4 mg/g
  Monatin/dry cell weight, 31 hours: 14.7 mg/g
  Monatin/dry cell weight, 48 hours: 23.5 mg/g
  Monatin/dry cell weight, 54 hours: 23.8 mg/g
[4]; 35° C., 30 g/L pyruvate
  Monatin/dry cell weight, 24 hours: 5.8 mg/g
  Monatin/dry cell weight, 31 hours: 18.1 mg/g
  Monatin/dry cell weight, 48 hours: 29.4 mg/g
  Monatin/dry cell weight, 54 hours: 35.2 mg/g
